# Test results taken from US7674807B2, “Heterocycle-substituted n-phenyl-phthalamide derivatives, related compounds and their use as insecticides” (Bayer CropScience AG, priority 2004, dated 2010).
# Legend:
# Assay type in all cases: in vivo
# [1] = test system: Myzus persicae resistant to organophosphorous agents and carbamates; assay: Test against Myzus persicae resistant to organophosphorous agents and carbamates (spray on eggplant seedlings); details: 100 ppm concentration of the effective component; 7 days after spraying; green house of 28° C.
# Procedure: About 30 bred Myzus persicae resistant to organophosphorous agents and carbamates were inoculated per 1 seedling of eggplant planted in a vinyl pot of 6 cm diameter. One day after the inoculation, a sufficient amount of a diluted aqueous solution of a prescribed concentration of an active compound prepared as mentioned above, was sprayed by using a spray gun. After spraying it was placed in a green house of 28° C. and the rate of death was calculated 7 days after the spraying. Test was repeated twice.
# [2] = test system: larva of Spodoptera litura; assay: Test against larva of Spodoptera litura (leaf dip, sweet potato leaves); details: 20 ppm concentration of the active component; third instar larvae; counted after 7 days; 25° C.
# In short: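 Sweet potato leaves were dipped in emulsified compound diluted with water, air-dried, and given to 10 third-instar larvae per dish at 25° C, with fresh leaves added on days 2 and 4. Mortality was counted after 7 days and averaged over 2 dishes.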
# [3] = test system: larva of Cnaphalocrocis medinalis Guenee; assay: Test against larva of Cnaphalocrocis medinalis Guenee (sprayed paddy rice foliage); details: 20 ppm concentration of the active component; second instar larvae; counted after 7 days; 25° C.
# In short: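 Potted rice (Tamanishiki) sprayed with aqueous dilutions of compound at the prescribed concentration; air-dried leaf pieces placed in dishes with five 2nd-instar larvae at 25° C, fresh treated foliage added at days 2 and 4. Mortality counted at day 7, averaged over 2 dishes.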
SMILES,"controlling effect, rate of death [1] [%]","controlling effect, rate of death [2] [%]","controlling effect, rate of death [3] [%]"
CSCC(C)NC(=O)c1c(Br)cccc1C(=O)Nc1ccc(Cn2nc(C(F)(F)F)nc2C(F)(F)F)cc1C (centres unmarked) [compound 178],100,,
Cc1cc(Cn2nc(C(F)(F)C(F)(F)F)nc2C(F)(F)F)ccc1NC(=O)c1cccc(Cl)c1C(=O)NC(C)CS(C)(=O)=O (centres unmarked) [compound 157],,100,100
CSC[C@H](C)NC(=O)c1c(Cl)cccc1C(=O)Nc1ccc(C(C)n2nc(C(F)(F)F)nc2C(F)(F)C(F)(F)F)cc1C (some centres unmarked) [compound 574],,100,100
Cc1cc(Cn2nc(C(F)(F)F)nc2C(F)(F)F)ccc1NC(=O)c1cccc(OS(C)(=O)=O)c1C(=O)NC(C)C[S+](C)[O-] (centres unmarked) [compound 253],,100,100
Cc1cc(Cn2nc(C(F)(F)F)cc2C(F)(F)F)ccc1NC(=O)c1cccc(Br)c1C(=O)NC(C)(C)CS(C)(=O)=O [compound 47],,100,100
Cc1cc(Cn2nc(C(F)(F)F)nc2C(F)(F)F)ccc1NC(=O)c1cccc(I)c1C(=O)NC(C)(C)C[S+](C)[O-] (centres unmarked) [compound 212],,100,100
Cc1cc(C(C)n2nc(C(F)(F)C(F)(F)F)nc2C(F)(F)F)ccc1NC(=O)c1cccc(Cl)c1C(=O)N[C@@H](C)CS(C)(=O)=O (some centres unmarked) [compound 580],,100,100
Cc1cc(Cn2nc(C(F)(F)F)nc2C(F)(F)F)ccc1NC(=O)c1cccc(Br)c1C(=O)NC(C)CS(C)(=O)=O (centres unmarked) [compound 182],,100,100
Cc1cc(Cn2nc(C(F)(F)C(F)(F)F)nc2C(F)(F)F)ccc1NC(=O)c1cccc(Cl)c1C(=O)NC(C)C[S+](C)[O-] (centres unmarked) [compound 155],,100,100
CSCC(C)NC(=O)c1c(I)cccc1C(=O)Nc1ccc(Cn2nc(C(F)(F)F)nc2C(F)F)cc1C (centres unmarked) [compound 238],,100,100
Cc1cc(Cn2nc(C(F)(F)F)cc2C(F)(F)F)ccc1NC(=O)c1cccc(Cl)c1C(=O)NC(C)(C)CS(C)(=O)=O [compound 10],,100,100
"Cc1cc(Cn2nc(C(F)(F)F)cc2C(F)(F)F)ccc1NC(=O)c1cccc(I)c1C(=O)NC(C)(C)C[S+](C)[O-] (centres unmarked) [compound 83, N^1-{4-[3,5-bis(trifluoromethyl)-1H-pyrazol-1-ylmethyl]-2-methylphenyl}-N^2-(2-methanesulfinyl-1,1-dimethylethyl)-3-iodophthalamide]",,100,100
Cc1cc(Cn2nc(C(F)(F)F)nc2C(F)F)ccc1NC(=O)c1cccc(I)c1C(=O)NC(C)CS(C)(=O)=O (centres unmarked) [compound 242],,100,100
Cc1cc(Cn2nc(C(F)(F)C(F)(F)F)nc2C(F)(F)F)ccc1NC(=O)c1cccc(Cl)c1C(=O)NC(C)(C)C[S+](C)[O-] (centres unmarked) [compound 150],,100,100
CSCC(C)NC(=O)c1c(Cl)cccc1C(=O)Nc1ccc(-n2nc(C(F)(F)F)cc2C(F)(F)F)cc1C (centres unmarked) [compound 318],,100,100
Cc1cc(Cn2nc(C(F)(F)F)cc2C(F)(F)F)ccc1NC(=O)c1cccc(Cl)c1C(=O)NC(C)(C)C[S+](C)[O-] (racemic) [compound 9],,100,100
Cc1cc(Cn2cc(C(F)(F)C(F)(F)C(F)(F)F)c(C(F)(F)C(F)(F)C(F)(F)F)n2)ccc1NC(=O)c1cccc(Cl)c1C(=O)N[C@@H](C)CS(C)(=O)=O [compound 669],,100,100
Cc1cc(-n2nc(C(F)(F)F)cc2C(F)(F)F)ccc1NC(=O)c1cccc(Cl)c1C(=O)NC(C)CS(C)(=O)=O (centres unmarked) [compound 322],,100,100
Cc1cc(Cn2nc(C(F)(F)F)cc2C(F)(F)F)ccc1NC(=O)c1cccc(I)c1C(=O)NC(C)C[S+](C)[O-] (mixture of isomers) [compound 88],,100,100
CSC[C@H](C)NC(=O)c1c(I)cccc1C(=O)Nc1ccc(Cn2cc(C(F)(F)C(F)(F)F)c(C(F)(F)F)n2)cc1C [compound 640],,100,100
Cc1cc(Cn2nc(C(F)(F)F)cc2C(F)(F)F)ccc1NC(=O)c1cccc(I)c1C(=O)NC(C)C [compound 81],,100,100

SMILES,"controlling effect, rate of death [1] [%]","controlling effect, rate of death [2] [%]","controlling effect, rate of death [3] [%]"
CSCC(C)NC(=O)c1c(Br)cccc1C(=O)Nc1ccc(Cn2nc(C(F)(F)F)cc2C(F)(F)F)cc1C (centres unmarked) [compound 49],,100,100
Cc1cc(Cn2nc(C(F)(F)F)nc2C(F)(F)F)ccc1NC(=O)c1cccc(Cl)c1C(=O)NC(C)(C)CS(C)(=O)=O [compound 139],,100,100
Cc1cc(-n2nc(C(F)(F)F)cc2C(F)(F)F)ccc1NC(=O)c1cccc(I)c1C(=O)NC(C)CS(C)(=O)=O (centres unmarked) [compound 417],,100,100
Cc1cc(-n2nc(C(F)(F)C(F)(F)F)cc2C(F)(F)F)ccc1NC(=O)c1cccc(I)c1C(=O)NC(C)CS(C)(=O)=O (centres unmarked) [compound 475],,100,100
Cc1cc(C(C)n2nc(C(F)(F)F)cc2C(F)(F)F)ccc1NC(=O)c1cccc(I)c1C(=O)NC(C)(C)C[S+](C)[O-] (centres unmarked) [compound 566],,100,100
CSCC(C)(C)NC(=O)c1c(Cl)cccc1C(=O)Nc1ccc(Cn2nc(C(F)(F)F)nc2C(F)(F)F)cc1C [compound 137],,100,100
CSCC(C)NC(=O)c1c(I)cccc1C(=O)Nc1ccc(-c2cc(OC(F)F)n(C(F)F)n2)cc1C (centres unmarked) [compound 518],,100,100
CSCC(C)(C)NC(=O)c1c(I)cccc1C(=O)Nc1ccc(Oc2nc(C(F)(F)F)cc(C(F)(F)F)n2)cc1C [compound 308],,100,100
CSCC(C)NC(=O)c1c(I)cccc1C(=O)Nc1ccc(Cn2c(C(F)(F)F)nnc2C(F)(F)F)cc1C (centres unmarked) [compound 299],,100,100
CSCC(C)NC(=O)c1c(I)cccc1C(=O)Nc1ccc(Cc2c(OC(F)F)nn(C(F)F)c2C(F)(F)F)cc1C (centres unmarked) [compound 268],,100,100
CC[S+]([O-])CC(C)NC(=O)c1c(I)cccc1C(=O)Nc1ccc(Cn2nc(C(F)(F)F)nc2C(F)(F)F)cc1C (centres unmarked) [compound 221],,100,100
Cc1cc(-c2cc(C(F)(F)F)nn2CC(F)(F)F)ccc1NC(=O)c1cccc(I)c1C(=O)NC(C)CS(C)(=O)=O (centres unmarked) [compound 508],,100,100
CSCC(C)NC(=O)c1c(I)cccc1C(=O)Nc1ccc(Cn2nc(C(F)(F)F)cc2OC(F)F)cc1C (racemic) [compound 103],,100,100
CSCC(C)NC(=O)c1c(I)cccc1C(=O)Nc1ccc(Cn2cc(C(F)(F)F)nc2C(F)(F)F)cc1C (centres unmarked) [compound 281],,100,100
CSC[C@H](C)NC(=O)c1c(C(=O)Nc2ccc(Cn3nc(C(F)(F)F)cc3C(F)(F)F)cc2C)cccc1[N+](=O)[O-] [compound 543],,100,100
Cc1cc(C(C)n2nc(C(F)(F)F)cc2C(F)(F)F)ccc1NC(=O)c1cccc(I)c1C(=O)N[C@@H](C)C[S+](C)[O-] (some centres unmarked) [compound 563],,100,100
CSCC(C)(C)NC(=O)c1c(Cl)cccc1C(=O)Nc1ccc(Cn2nc(C(F)(F)F)cc2C(F)(F)F)cc1C [compound 8],,100,100
Cc1cc(Cn2nc(C(F)(F)F)cc2C(F)(F)F)ccc1NC(=O)c1cccc(I)c1C(=O)NC(C)CS(C)(=O)=O (racemic) [compound 89],,100,100
CSCC(C)NC(=O)c1c(I)cccc1C(=O)Nc1ccc(Cn2nc(C(F)(F)F)cc2C(F)(F)F)cc1C (centres unmarked) [compound 86],,100,100
CSCC(C)NC(=O)c1c(OS(C)(=O)=O)cccc1C(=O)Nc1ccc(Cn2nc(C(F)(F)F)cc2C(F)(F)F)cc1C (centres unmarked) [compound 128],,100,100
Cc1cc(Cn2nc(C(F)(F)F)nc2C(F)(F)F)ccc1NC(=O)c1cccc(I)c1C(=O)NC(C)C[S+](C)[O-] (centres unmarked) [compound 216],,100,100
